# Source: patent US8309577B2, “Quinuclidine compounds as α-7 nicotinic acetylcholine receptor ligands” (Bristol-Myers Squibb Company, priority 2008, dated 2012)
# Read-outs that look alike come from different tables or passages of the source.
# Columns and labels:
# [1] = molecular target: T1, α-7 nicotinic acetylcholine receptor channel expressed in HEK 293 cells (Rattus norvegicus, UniProt Q05941); assay: Ca2+-sensitive fluorescence-based FLIPR assay, α7 nicotinic ACh receptor channel function (agonist); type: cell-based
# T1 construct: expressed in transfected cells
# How it was run: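 Potency and efficacy derived from kinetic FLIPR Ca²⁺-flux fluorescence, recorded 3 min after compound addition in Hanks buffer following a 10 s baseline.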
# [2] = FLIPR α7 activity rating (EC50, nM), Table 1, HEK 293 cells, agonist Ca2+ flux
# [3] = FLIPR α7 activity rating (EC50, nM), Table Ib, HEK 293 cells, agonist Ca2+ flux
# [4] = FLIPR α7 (EC50, nM), Table Ib, HEK 293 cells, agonist Ca2+ flux
# T1 sequence (Q05941 23-502): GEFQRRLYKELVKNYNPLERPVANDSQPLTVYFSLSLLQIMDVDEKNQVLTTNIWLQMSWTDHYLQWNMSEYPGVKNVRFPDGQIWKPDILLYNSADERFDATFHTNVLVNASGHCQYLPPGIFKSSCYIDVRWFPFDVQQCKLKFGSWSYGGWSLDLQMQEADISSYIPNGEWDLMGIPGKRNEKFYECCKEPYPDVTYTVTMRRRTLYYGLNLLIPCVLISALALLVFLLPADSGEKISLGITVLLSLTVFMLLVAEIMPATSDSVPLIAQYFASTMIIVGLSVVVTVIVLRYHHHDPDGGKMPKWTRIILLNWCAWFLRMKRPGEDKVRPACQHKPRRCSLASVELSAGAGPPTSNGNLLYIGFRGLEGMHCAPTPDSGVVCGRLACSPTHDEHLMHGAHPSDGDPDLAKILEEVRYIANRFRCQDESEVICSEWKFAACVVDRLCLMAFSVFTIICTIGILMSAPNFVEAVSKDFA
SMILES,"EC50 [1, 3] [nM]",also measured
"c1ccc(-c2cnc(NC3=NCC4(CN5CCC4CC5)O3)s2)cc1 (stereo not drawn) [Example 4, N-(5-Phenylthiazol-2-yl)-4H-1′-azaspiro[oxazole-5,3′-bicyclo[2.2.2]octan]-2-amine]",–,"melting point: 187 to 189 °C; EC50 [1, 2]: < 100 nM"
"c1ccc2[nH]c(NC3=NCC4(CN5CCC4CC5)O3)nc2c1 (stereo not drawn) [Example 8, N-(1H-benzo[d]imidazol-2-yl)-4H-1′-azaspiro[oxazole-5,3′-bicyclo[2.2.2]octan]-2-amine]",–,"melting point: 255 °C (dec.); EC50 [1, 2]: 100 to 1000 nM"
"FC(F)Oc1ccc2nc(NC3=NC[C@@]4(CN5CCC4CC5)O3)sc2c1 [Example 22, (R)—N-(6-(Difluoromethoxy)benzo[d]thiazol-2-yl)-4H-1′-azaspiro[oxazole-5,3′-bicyclo[2.2.2]octan]-2-amine]",–,"melting point: 223 to 225 °C; EC50 [1, 2]: 100 to 1000 nM"
FC(F)Oc1cc(NC2=NC[C@@]3(CN4CCC3CC4)O2)ncn1 [Example 144],–,"melting point: 185 to 190 °C; EC50 [1, 2]: < 100 nM"
"Fc1cc2cnc(NC3=NC[C@@]4(CN5CCC4CC5)O3)cc2cc1F [Example 319, (R)—N-(6,7-Difluoroisoquinolin-3-yl)-4H-1′-azaspiro[oxazole-5,3′-bicyclo[2.2.2]octan]-2-amine]",< 100,–
"Fc1ccc(F)c2cc(NC3=NC[C@@]4(CN5CCC4CC5)O3)ncc12 [Example 320, (R)—N-(5,8-Difluoroisoquinolin-3-yl)-4H-1′-azaspiro[oxazole-5,3′-bicyclo[2.2.2]octan]-2-amine]",< 100,–
"Fc1ccc2cnc(NC3=NC[C@@]4(CN5CCC4CC5)O3)nc2c1 [Example 321, (R)—N-(7-Fluoroquinazolin-2-yl)-4H-1′-azaspiro[oxazole-5,3′-bicyclo[2.2.2]octan]-2-amine]",< 100,–
"Clc1cccc2nc(NC3=NC[C@@]4(CN5CCC4CC5)O3)ncc12 [Example 322, (R)—N-(5-Chloroquinazolin-2-yl)-4H-1′-azaspiro[oxazole-5,3′-bicyclo[2.2.2]octan]-2-amine]",< 100,–
"Fc1cccc2nc(NC3=NC[C@@]4(CN5CCC4CC5)O3)ncc12 [Example 323, (R)—N-(5-Fluoroquinazolin-2-yl)-4H-1′-azaspiro[oxazole-5,3′-bicyclo[2.2.2]octan]-2-amine]",< 100,–
"Cc1nc(NC2=NC[C@@]3(CN4CCC3CC4)O2)nc2cc(F)ccc12 [Example 324, (R)—N-(7-Fluoro-4-methylquinazolin-2-yl)-4H-1′-azaspiro[oxazole-5,3′-bicyclo[2.2.2]octan]-2-amine]",< 100,–
"Cc1nc(NC2=NC[C@@]3(CN4CCC3CC4)O2)cc2cc(F)ccc12 [Example 325, (R)—N-(6-Fluoro-1-methylisoquinolin-3-yl)-4H-1′-azaspiro[oxazole-5,3′-bicyclo[2.2.2]octan]-2-amine]",100 to 1000,"EC50 [1, 4]: 139 nM"
"Cc1nc(NC2=NC[C@@]3(CN4CCC3CC4)O2)cc2cc(Cl)ccc12 [Example 326, (R)—N-(6-Chloro-1-methylisoquinolin-3-yl)-4H-1′-azaspiro[oxazole-5,3′-bicyclo[2.2.2]octan]-2-amine]",100 to 1000,–
"Cc1nc(NC2=NC[C@@]3(CN4CCC3CC4)O2)cc2ccc(F)cc12 [Example 327, (R)—N-(7-Fluoro-1-methylisoquinolin-3-yl)-4H-1′-azaspiro[oxazole-5,3′-bicyclo[2.2.2]octan]-2-amine]",100 to 1000,–
"Cc1nc(NC2=NC[C@@]3(CN4CCC3CC4)O2)cc2c(F)cc(F)cc12 [Example 328, (R)—N-(5,7-Difluoro-1-methylisoquinolin-3-yl)-4H-1′-azaspiro[oxazole-5,3′-bicyclo[2.2.2]octan]-2-amine]",100 to 1000,–
"CSc1ccc(-c2cc(NC3=NC[C@@]4(CN5CCC4CC5)O3)ncn2)cn1 [Example 329, (R)—N-(6-(6-(Methylthio)pyridin-3-yl)pyrimidin-4-yl)-4H-1′-azaspiro[oxazole-5,3′-bicyclo[2.2.2]octan]-2-amine]",< 100,–
"Fc1ncccc1-c1cc(NC2=NC[C@@]3(CN4CCC3CC4)O2)ncn1 [Example 330, (R)—N-(6-(2-Fluoropyridin-3-yl)pyrimidin-4-yl)-4H-1′-azaspiro[oxazole-5,3′-bicyclo[2.2.2]octan]-2-amine]",< 100,–
"Fc1ccc(-c2cc(NC3=NC[C@@]4(CN5CCC4CC5)O3)ncn2)cn1 [Example 331, (R)—N-(6-(6-Fluoropyridin-3-yl)pyrimidin-4-yl)-4H-1′-azaspiro[oxazole-5,3′-bicyclo[2.2.2]octan]-2-amine]",< 100,–
"Fc1cncc(-c2cc(NC3=NC[C@@]4(CN5CCC4CC5)O3)ncn2)c1 [Example 332, (R)—N-(6-(5-Fluoropyridin-3-yl)pyrimidin-4-yl)-4H-1′-azaspiro[oxazole-5,3′-bicyclo[2.2.2]octan]-2-amine]",< 100,–
"Cn1nccc1-c1cc(NC2=NC[C@@]3(CN4CCC3CC4)O2)ncn1 [Example 333, (R)—N-(6-(1-Methyl-1H-pyrazol-5-yl)pyrimidin-4-yl)-4H-1′-azaspiro[oxazole-5,3′-bicyclo[2.2.2]octan]-2-amine]",< 100,–

SMILES,"EC50 [1, 3] [nM]",also measured
"c1cnc(-c2cc(NC3=NC[C@@]4(CN5CCC4CC5)O3)ncn2)cn1 [Example 334, (R)—N-(6-(Pyrazin-2-yl)pyrimidin-4-yl)-4H-1′-azaspiro[oxazole-5,3′-bicyclo[2.2.2]octan]-2-amine]",< 100,–
"Cc1cc2cnc(NC3=NC[C@@]4(CN5CCC4CC5)O3)cc2cc1C [Example 335, (2R)—N-(6,7-Dimethyl-3-isoquinolinyl)-4′H-spiro[4-azabicyclo[2.2.2]octane-2,5′-[1,3]oxazol]-2′-amine]",100 to 1000,"EC50 [1, 4]: 104 nM"
"Cc1ccc2nc(NC3=NC[C@@]4(CN5CCC4CC5)O3)oc2c1 [Example 336, (2R)—N-(6-Methyl-1,3-benzoxazol-2-yl)-4′H-spiro[4-azabicyclo[2.2.2]octane-2,5′-[1,3]oxazol]-2′-amine]",< 100,–
"COc1ccc2nc(NC3=NC[C@@]4(CN5CCC4CC5)O3)oc2c1 [Example 337, (2R)—N-(6-Methoxy-1,3-benzoxazol-2-yl)-4′H-spiro[4-azabicyclo[2.2.2]octane-2,5′-[1,3]oxazol]-2′-amine]",100 to 1000,–
"Clc1cccc2cnc(NC3=NC[C@@]4(CN5CCC4CC5)O3)cc12 [Example 338A, (R)—N-(5-chloroisoquinolin-3-yl)-4H-1′-azaspiro[oxazole-5,3′-bicyclo[2.2.2]octan]-2-amine]",< 100,–
"Clc1ccc2cc(NC3=NC[C@@]4(CN5CCC4CC5)O3)ncc2c1 [Example 338B, (R)—N-(7-chloroisoquinolin-3-yl)-4H-1′-azaspiro[oxazole-5,3′-bicyclo[2.2.2]octan]-2-amine]",< 100,–
"Clc1cnc2nc(NC3=NC[C@@]4(CN5CCC4CC5)O3)sc2c1 [Example 339, (R)—N-(6-Chlorothiazolo[4,5-b]pyridin-2-yl)-4H-1′-azaspiro[oxazole-5,3′-bicyclo[2.2.2]octan]-2-amine]",< 100,–
"Fc1ccc2nc(NC3=NC[C@@]4(CN5CCC4CC5)O3)sc2n1 [Example 340, (R)—N-(5-Fluorothiazolo[5,4-b]pyridin-2-yl)-4H-1′-azaspiro[oxazole-5,3′-bicyclo[2.2.2]octan]-2-amine]",< 100,–
"Cc1cnc2nc(NC3=NC[C@@]4(CN5CCC4CC5)O3)sc2n1 [Example 341, (R)—N-(6-methylthiazolo[5,4-b]pyrazin-2-yl)-4H-1′-azaspiro[oxazole-5,3′-bicyclo[2.2.2]octan]-2-amine]",< 100,–
"COc1cc2cnc(NC3=NC[C@@]4(CN5CCC4CC5)O3)cc2cc1OC [Example 342, (R)—N-(6,7-dimethoxyisoquinolin-3-yl)-4H-1′-azaspiro[oxazole-5,3′-bicyclo[2.2.2]octan]-2-amine]",1000 to 100000,EC50 [1]: 1600 nM
"c1nc(NC2=NC[C@@]3(CN4CCC3CC4)O2)cc2c1CCCC2 [Example 343, (R)—N-(5,6,7,8-Tetrahydroisoquinolin-3-yl)-4H-1′-azaspiro[oxazole-5,3′-bicyclo[2.2.2]octan]-2-amine]",< 100,–
"COc1cc2cnc(NC3=NC[C@@]4(CN5CCC4CC5)O3)cc2cc1Cl [Example 344, (R)—N-(6-Chloro-7-methoxyisoquinolin-3-yl)-4H-1′-azaspiro[oxazole-5,3′-bicyclo[2.2.2]octan]-2-amine]",< 100,–
"Fc1cccc2cnc(NC3=NC[C@@]4(CN5CCC4CC5)O3)cc12 [Example 345, (R)—N-(5-Fluoroisoquinolin-3-yl)-4H-1′-azaspiro[oxazole-5,3′-bicyclo[2.2.2]octan]-2-amine]",< 100,–
"Fc1ccc(Br)c2cnc(NC3=NC[C@@]4(CN5CCC4CC5)O3)cc12 [Example 346, (R)—N-(8-Bromo-5-fluoroisoquinolin-3-yl)-4H-1′-azaspiro[oxazole-5,3′-bicyclo[2.2.2]octan]-2-amine]",100 to 1000,"EC50 [1, 4]: 310 nM"
"c1cn(-c2cc(NC3=NC[C@@]4(CN5CCC4CC5)O3)ncn2)cn1 [Example 347, (R)—N-(6-(1H-imidazol-1-yl)pyrimidin-4-yl)-4H-1′-azaspiro[oxazole-5,3′-bicyclo[2.2.2]octan]-2-amine]",< 100,–
"Cc1cn(-c2cc(NC3=NC[C@@]4(CN5CCC4CC5)O3)ncn2)cn1 [Example 348, (R)—N-(6-(4-Methyl-1H-imidazol-1-yl)pyrimidin-4-yl)-4H-1′-azaspiro[oxazole-5,3′-bicyclo[2.2.2]octan]-2-amine]",< 100,–
"Clc1cn(-c2cc(NC3=NC[C@@]4(CN5CCC4CC5)O3)ncn2)cn1 [Example 349, (R)—N-(6-(4-Chloro-1H-imidazol-1-yl)pyrimidin-4-yl)-4H-1′-azaspiro[oxazole-5,3′-bicyclo[2.2.2]octan]-2-amine]",< 100,–
"c1nc(NC2=NC[C@@]3(CN4CCC3CC4)O2)cc(-n2cncn2)n1 [Example 351, (R)—N-(6-(1H-1,2,4-triazol-1-yl)pyrimidin-4-yl)-4H-1′-azaspiro[oxazole-5,3′-bicyclo[2.2.2]octan]-2-amine]",< 100,–
